Laboratory results: patent US7122520B2, “Methods of modulating appetite using agouti-related transcript polypeptides” (Amgen Inc., priority 1996, dated 2006)
Ends that are not written are not given here.

Experiments:
food intake of rats = test: Feeding behavior of rats treated with ART (intracerebroventricular injection); format: in vivo, Long-Evans male rats
Description: Long-Evans male rats weighing 300–500 grams were chronically implanted in the brain with a 22 gauge cannula aimed at the lateral ventricle. The steriotaxic coordinates for the canulas were approximately: 0.8 mm anterior/posterior; 1.4 mm medial/lateral; and 3.5 mm dorsal/ventral. A 3.5 mm, 28 gauge stylet remained inside the implanted cannula until the animal was ready for an injection. ART peptide or control solutions were administered with a 28 gauge injector that extended about 1 mm beyond the tip of the cannula.
ART peptide was dissolved in PBS (pH about 7.0) and injected into the lateral ventricle at doses ranging from about 0.075 nmol to about 7.5 nmol in a volume of about 2 μl. Controls were PBS and an unfolded version of ART at about 7.5 nmol. Feeding measurements were taken from pre-weighed dishes containing a mixture of ground rodent chow, sugar, and condensed milk. (45%:28%:27%). Rats were offered this mixture along with their regular chow about 24 hours prior to injection. About one and one half hours prior to infusion, the regular chow was removed, but the rats were allowed to continue feeding on the sweetened mixture. Injections were done at 8:30 am or at 8:30 pm. Food intake was assessed by weighing the dishes over time at 90 minutes, 4 hours, 8 hours, 12 hours, and 24 hours after injection. 10–12 rats were used per group.

feeding response of rats = conditions: injection into the brain of rats; cited from earlier work
MC1 receptor = molecular target: T1, MC1 receptor (Mus musculus, UniProt Q01727); conditions: B16F10 mouse melanoma cell cultures; cited from earlier work
T1 construct: at the MC1 receptor in B16F10 mouse melanoma cell cultures; endogenous in cells; host or cells: B16F10 mouse melanoma cells
T1 sequence (Q01727 whole entry): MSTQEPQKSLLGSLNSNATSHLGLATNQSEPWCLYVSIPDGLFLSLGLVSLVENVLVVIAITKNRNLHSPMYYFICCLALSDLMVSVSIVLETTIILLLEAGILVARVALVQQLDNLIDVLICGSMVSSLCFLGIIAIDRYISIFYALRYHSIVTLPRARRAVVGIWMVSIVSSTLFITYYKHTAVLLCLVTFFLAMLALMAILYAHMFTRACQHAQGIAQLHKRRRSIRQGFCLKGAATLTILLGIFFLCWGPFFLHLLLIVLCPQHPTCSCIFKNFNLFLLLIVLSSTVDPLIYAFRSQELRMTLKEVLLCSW

## folded ART: synthetic peptide containing amino acids 79–132 of ART (SEQ ID NO:8), refolded in Tris-HCl/urea (REPRSSRRCVRLHESCLGQQVPCCDPCATCYCRFFNAFCYCRKLGTAMNPCSRT; cysteine pairing not given here; also: refolded)
Food intake of rats; injection into lateral ventricle, 0.075-7.5 nmol in about 2 μl, measured 90 minutes to 24 hours after injection, vs PBS and unfolded ART controls
  food intake (cumulative amount of food consumed): increased their food intake as compared to controls
Food intake of rats; lateral ventricle, doses about 0.075 nmol to about 7.5 nmol
  relation between amount of ART injected and amount of food eaten: correlation between the amount of ART injected and the amount of food eaten

## melanin concentrating hormone (DFDMLRCMLGRVYRPCWQV; ends and bridges not checked; cysteine pairing not given here; UniProt P20382 147-165, looked up) [MCH]
Feeding response of rats
  feeding response: stimulates a feeding response

B1: mouse agouti protein: 131 amino acid secreted protein encoded by the mouse agouti gene (protein, UniProt Q03288 23-131, looked up)
Agouti-signaling protein: HLALEETLGDDRSLRSNSSMNSLDFSSVSIVALNKKSKKISRKEAEKRKRSSKKKASMKKVARPPPPSPCVATRDSCKPPAPACCDPCASCQCRFFGSACTCRVLNPNC
MC1 receptor
  antagonism of a-MSH at the MC1 receptor: potent antagonist
